Among the data in PubChem BioAssay (NCI) are TGI and GI50 values, retold here.

Among the test systems are IGROV1 ovarian; SK-MEL-2 melanoma; HCT-116 colon; NCI-H23 lung; SR leukemia; MOLT-4 leukemia; HL-60(TB) leukemia; OVCAR-4 ovarian; HS 578T breast; PC-3 prostate.
Assay in all cases: inhibition of tumour cell growth, NCI panel, 48 h

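Compound exposure: 48 hours, 5 concentrations, 96-well plates. GI50 is the concentration that inhibits growth by half. TGI marks complete inhibition of growth.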 Some results are limits rather than exact numbers.

With `N#CC12CCC1C1CCCCC12N1CCSCC1` (stereo not given), the TGI with IGROV1 ovarian was greater than 100 µM; with SK-MEL-2 melanoma, greater than 100 µM; with HCT-116 colon, greater than 100 µM; in the assay on NCI-H23 lung, greater than 10 µM; with SR leukemia it was greater than 100 µM; with MOLT-4 leukemia it was greater than 100 µM. For the same compound, the TGI with HL-60(TB) leukemia was 46.1 µM; in the assay with OVCAR-4 ovarian it was greater than 10 µM.

Regarding `O=C(O)C[C@@H](Cl)[C@H](NC(=O)OCc1ccccc1)C(=O)O`, the TGI in the assay on IGROV1 ovarian, in the assay on SK-MEL-2 melanoma, with HCT-116 colon, in the assay on NCI-H23 lung, in the assay with MOLT-4 leukemia and in the assay on HL-60(TB) leukemia was greater than 100 µM throughout. Besides, the TGI in the assay with OVCAR-4 ovarian was greater than 100 µM.

Regarding `COc1ccc(/C=C2\CN(C(=O)C(Cl)Cl)C/C(=C\c3ccc(OC)cc3)C2=O)cc1`, the GI50 was 2.65 µM in the assay on HS 578T breast; 0.234 µM in the assay on HCT-116 colon; 1.56 µM in the assay with NCI-H23 lung; 0.357 µM with SR leukemia; 1.78 µM with MOLT-4 leukemia; 0.791 µM in the assay with HL-60(TB) leukemia. Moreover, the GI50 in the assay on OVCAR-4 ovarian was 2.32 µM. Further, the TGI in the assay on HS 578T breast is greater than 100 µM; with HCT-116 colon, 0.653 µM; with NCI-H23 lung it was 4 µM; in the assay on SR leukemia, greater than 100 µM; with MOLT-4 leukemia, greater than 100 µM; in the assay on HL-60(TB) leukemia, 7.52 µM. The compound further registered a TGI in the assay on OVCAR-4 ovarian greater than 100 µM.

On to `CCC[CH2][Sn]([CH2]CCC)([O]c1cccc2cccnc12)[O]c1cccc2cccnc12`, for which the GI50 in the assay with IGROV1 ovarian was 1 µM; in the assay with HCT-116 colon, 0.189 µM; in the assay with NCI-H23 lung, 0.169 µM; with MOLT-4 leukemia it was 0.159 µM; in the assay on OVCAR-4 ovarian, 0.229 µM. For the same compound, the TGI worked out at 2.27 µM in the assay on IGROV1 ovarian; 0.385 µM in the assay with HCT-116 colon; 0.52 µM in the assay with NCI-H23 lung; 0.377 µM in the assay with MOLT-4 leukemia; 0.46 µM in the assay with OVCAR-4 ovarian.

Regarding `CCC(=O)N1C(=O)OCC1C(C)C` (stereo not given), the TGI in the assay on IGROV1 ovarian, in the assay on SK-MEL-2 melanoma, with HCT-116 colon, in the assay on NCI-H23 lung, in the assay on MOLT-4 leukemia and in the assay on HL-60(TB) leukemia was greater than 100 µM throughout. In the assay on OVCAR-4 ovarian, this compound showed a TGI greater than 100 µM.

Take `O=C1C(=O)N(c2ccc(Cl)cc2)C(=O)C(=O)C1c1nc2ccccc2o1`: the TGI with IGROV1 ovarian, in the assay on SK-MEL-2 melanoma, with HCT-116 colon, in the assay on NCI-H23 lung, in the assay with MOLT-4 leukemia and in the assay with HL-60(TB) leukemia was greater than 100 µM in each case. This compound showed a TGI in the assay with OVCAR-4 ovarian greater than 100 µM.

On to `O=c1c2ccc(S(=O)(=O)c3ccc4c(=O)n5c6ccccc6nc5c5cccc3c45)c3cccc(c32)c2nc3ccccc3n12`, for which the TGI with IGROV1 ovarian was 18.2 µM; with SK-MEL-2 melanoma, 65.6 µM; with HCT-116 colon it was greater than 100 µM; in the assay on NCI-H23 lung, greater than 100 µM; in the assay on PC-3 prostate, greater than 100 µM.

For the compound `O=S(=O)([O-])c1ccc(N=Cc2ccccc2[O-])cc1.O=S(=O)([O-])c1ccc(N=Cc2ccccc2[O-])cc1.[Co+2]`, the GI50 in the assay on IGROV1 ovarian is greater than 100 µM; in the assay with SK-MEL-2 melanoma it was greater than 100 µM; in the assay on NCI-H23 lung it was greater than 100 µM; in the assay with SR leukemia, 30.3 µM; in the assay on MOLT-4 leukemia, 21.7 µM; in the assay on HL-60(TB) leukemia, 40.1 µM. Moreover, the TGI in the assay on IGROV1 ovarian, in the assay with SK-MEL-2 melanoma, with NCI-H23 lung, in the assay on SR leukemia, in the assay with MOLT-4 leukemia and in the assay on HL-60(TB) leukemia was greater than 100 µM throughout.

Turning to `COC(OC)c1cc2c(cc1C=O)OCO2`, the TGI with IGROV1 ovarian, in the assay on SK-MEL-2 melanoma, in the assay on HCT-116 colon, with NCI-H23 lung, in the assay on SR leukemia and with MOLT-4 leukemia was greater than 100 µM throughout. The TGI in the assay with HL-60(TB) leukemia and with OVCAR-4 ovarian was greater than 100 µM throughout.

`C[C@]12CCC(=O)C(OC(=O)c3ccc([N+](=O)[O-])cc3)=C1CCC2=O`: the TGI with IGROV1 ovarian, with HCT-116 colon, in the assay on SR leukemia, in the assay on MOLT-4 leukemia, with HL-60(TB) leukemia and in the assay on OVCAR-4 ovarian was greater than 100 µM throughout.

As for `COc1ccc(/C(=N\NC(=O)NN)C(c2ccc(OC)cc2)C2(O)C(=O)Nc3c(Cl)cc(Cl)cc32)cc1` (stereo not given), the TGI in the assay with IGROV1 ovarian, with SK-MEL-2 melanoma, in the assay with HCT-116 colon, in the assay on NCI-H23 lung, in the assay with MOLT-4 leukemia and in the assay on HL-60(TB) leukemia was greater than 100 µM in each case. This compound returned a TGI with OVCAR-4 ovarian greater than 100 µM.

Take `Cc1ccc(-c2nc3ccccc3c(=O)n2NCC2(O)OCC(O)C(O)C2O)cc1` (stereo not given): the TGI with SK-MEL-2 melanoma, with HCT-116 colon, with NCI-H23 lung, in the assay on SR leukemia, in the assay with MOLT-4 leukemia and in the assay with HL-60(TB) leukemia was greater than 100 µM in each case. Moreover, in the assay with OVCAR-4 ovarian, the TGI is greater than 100 µM.

For the compound `N#CC(/C(CCC(=O)Nc1ccc(Cl)cc1)=N/NC(=O)c1cc2ccccc2cc1O)c1ccccc1` (stereo not given), the TGI in the assay on IGROV1 ovarian was greater than 100 µM; in the assay with SK-MEL-2 melanoma, 61.2 µM; with HCT-116 colon, greater than 100 µM; with NCI-H23 lung, greater than 100 µM; in the assay on MOLT-4 leukemia, 94.9 µM; in the assay on HL-60(TB) leukemia, 33 µM. In the assay on OVCAR-4 ovarian, this compound returned a TGI greater than 100 µM.

`COC(=O)c1ccccc1N(C(=O)c1ccccc1)c1ccccc1C`: the TGI in the assay with IGROV1 ovarian was greater than 100 µM; in the assay on SK-MEL-2 melanoma it was greater than 100 µM; with HCT-116 colon, greater than 100 µM; in the assay on NCI-H23 lung, 79.3 µM; with SR leukemia, 99.4 µM; in the assay on MOLT-4 leukemia, 54.6 µM. In addition, the TGI was 43.1 µM in the assay on HL-60(TB) leukemia and greater than 100 µM in the assay on OVCAR-4 ovarian.

In the case of `Cc1n[nH]c(=S)n(C)c1=S`, the TGI in the assay on IGROV1 ovarian, in the assay with SK-MEL-2 melanoma, in the assay with HCT-116 colon, with NCI-H23 lung, in the assay with MOLT-4 leukemia and in the assay with OVCAR-4 ovarian was greater than 100 µM each time.

Consider `COc1cc(/C=C(\NC(=O)c2ccccc2)c2nc3ccc4c(c3[nH]2)C(=O)c2ccccc2C4=O)cc(OC)c1OC`, for which the TGI is greater than 100 µM in the assay on IGROV1 ovarian; greater than 100 µM with SK-MEL-2 melanoma; greater than 100 µM with HCT-116 colon; greater than 100 µM in the assay on NCI-H23 lung; 43 µM with MOLT-4 leukemia; greater than 100 µM in the assay on OVCAR-4 ovarian.
